The values below are quoted from earlier work in paper PMC6611794, “Development of a high-throughput strategy for discovery of potent analogues of antibiotic lysocin E” (Nature Communications, 2019).

The data set concerns S. aureus. On the set-up: method as in PMID 25485686. The conditions noted are these: S. aureus-infected mice; cited from earlier work. An excerpt: Lysocin E (1, Fig. 1a) was isolated from Lysobacter sp. as a new antibiotic and structurally determined to be a 37-membered depsipeptide (molecular weight = 1618 Da) with an N-methylated amide and ester linkages. The macrocyclic core of 12 residues contains four different non-proteinogenic D-amino acids (D-Arg-2/7, N-Me-D-Phe-5, D-Gln-9, D-Trp-10) and is appended with (R)-3-hydroxy-5-methylhexanamide. […] Screening of the additives ind ...

By ED50 is commonly meant the dose that gives a 50% effect, or the effect in half of the subjects. Regarding `CN[C@H](CC(C)C)C(=O)N[C@H]1C(=O)N[C@@H](CC(N)=O)C(=O)N[C@H]2C(=O)N[C@H]3C(=O)N[C@H](C(=O)N[C@H](C(=O)O)c4cc(O)cc(O)c4-c4cc3ccc4O)[C@H](O)c3ccc(c(Cl)c3)Oc3cc2cc(c3O[C@@H]2O[C@H](CO)[C@@H](O)[C@H](O)[C@H]2O[C@H]2C[C@](C)(N)[C@H](O)[C@H](C)O2)Oc2ccc(cc2Cl)[C@H]1O` [vancomycin, reference compound], the ED50 is listed as 5.8 mg/kg.
